Laboratory results reported in ChEMBL document CHEMBL3885861, “Open TG-GATES”.

Species: Rattus norvegicus
Assay: Open TG-GATES - Regimen: Single
Assay type: toxicity, organism-based, Sprague-Dawley
Design: regimen Single, gender Male, age 6 weeks
Settings: in vivo, po, 0 mg/kg, route gavage, dose level Control; for APTT / Bas / Eos / Fbg / Hb / Ht / Lym / MCH / MCHC / MCV / Mono / Neu / PT / Plat / RBC / Ret / WBC: tissue Blood; for KIDNEY_L / KIDNEY_R / KIDNEY_TOTAL: tissue Kidney; for LIVER: tissue Liver; for A/G / ALP / ALT / AST / BUN / CRE / Ca / Cl / DBIL / GLC / IP / K / LDH / Na / PL / RALB / TBIL / TC / TG / TP / gamma-GTP: tissue Plasma

S=C=Nc1cccc2ccccc12 [1-NAPHTHYLISOTHIOCYANATE]
TERMINAL_BW (3 h): 224.9 g | APTT (3 h): 18.6 s | Bas (3 h): 0% | Eos (3 h): 1% | Fbg (3 h): 223 mg/dL | Hb (3 h): 13.7 g/dL | Ht (3 h): 37.8% | Lym (3 h): 78% | MCH (3 h): 22.1 pg | MCHC (3 h): 36.2% | MCV (3 h): 61 fL | Mono (3 h): 2.6% | Neu (3 h): 17.6% | PT (3 h): 11.9 s | Plat (3 h): 124.1 x10_4/uL | RBC (3 h): 619.8 x10_4/ul | Ret (3 h): 8.2% | WBC (3 h): 101.9 x10_2/uL | KIDNEY_L (3 h): 1 g | KIDNEY_R (3 h): 1 g | KIDNEY_TOTAL (3 h): 2 g | LIVER (3 h): 10.2 g | A/G (3 h): 1.6 | ALP (3 h): 937 IU/L | ALT (3 h): 37.6 IU/L | AST (3 h): 73 IU/L | BUN (3 h): 11.2 mg/dL | CRE (3 h): 0.4 mg/dL | Ca (3 h): 10.9 mg/dL | Cl (3 h): 103.4 meq/L | DBIL (3 h): 0.07 mg/dL | GLC (3 h): 200.8 mg/dL | IP (3 h): 9.4 mg/dL | K (3 h): 3.9 meq/L | LDH (3 h): 189.2 IU/L | Na (3 h): 141.6 meq/L | PL (3 h): 161.6 mg/dL | RALB (3 h): 3.4 g/dL | TBIL (3 h): 0.1 mg/dL | TC (3 h): 81 mg/dL | TG (3 h): 82.2 mg/dL | TP (3 h): 5.5 g/dL | gamma-GTP (3 h): 1 IU/L | TERMINAL_BW (6 h): 218.1 g | APTT (6 h): 18.7 s | Bas (6 h): 0.2% | Eos (6 h): 0.8% | Fbg (6 h): 232.2 mg/dL | Hb (6 h): 13.4 g/dL | Ht (6 h): 37.2% | Lym (6 h): 76% | MCH (6 h): 22 pg | MCHC (6 h): 36% | MCV (6 h): 61.2 fL | Mono (6 h): 3.4% | Neu (6 h): 18.4% | PT (6 h): 11.8 s | Plat (6 h): 128 x10_4/uL | RBC (6 h): 609.2 x10_4/ul | Ret (6 h): 7.2% | WBC (6 h): 106.9 x10_2/uL | KIDNEY_L (6 h): 1 g | KIDNEY_R (6 h): 1 g | KIDNEY_TOTAL (6 h): 2 g | LIVER (6 h): 9.6 g | A/G (6 h): 1.8 | ALP (6 h): 1087 IU/L | ALT (6 h): 35.6 IU/L | AST (6 h): 71.8 IU/L | BUN (6 h): 10 mg/dL | CRE (6 h): 0.4 mg/dL | Ca (6 h): 10.6 mg/dL | Cl (6 h): 103.8 meq/L | DBIL (6 h): 0.07 mg/dL | GLC (6 h): 192 mg/dL | IP (6 h): 10 mg/dL | K (6 h): 3.8 meq/L | LDH (6 h): 167.6 IU/L | Na (6 h): 141.8 meq/L | PL (6 h): 142.8 mg/dL | RALB (6 h): 3.5 g/dL | TBIL (6 h): 0.1 mg/dL | TC (6 h): 76.2 mg/dL | TG (6 h): 63.8 mg/dL | TP (6 h): 5.4 g/dL | gamma-GTP (6 h): 1 IU/L | TERMINAL_BW (9 h): 216.9 g | APTT (9 h): 17.6 s | Bas (9 h): 0.2% | Eos (9 h): 0.8% | Fbg (9 h): 234.6 mg/dL | Hb (9 h): 13.3 g/dL | Ht (9 h): 36.8% | Lym (9 h): 75% | MCH (9 h): 21.7 pg | MCHC (9 h): 36.1% | MCV (9 h): 60.1 fL | Mono (9 h): 2.2% | Neu (9 h): 20.8% | PT (9 h): 12.2 s | Plat (9 h): 121.1 x10_4/uL | RBC (9 h): 612 x10_4/ul | Ret (9 h): 6.9% | WBC (9 h): 90.1 x10_2/uL | KIDNEY_L (9 h): 0.9 g | KIDNEY_R (9 h): 1 g | KIDNEY_TOTAL (9 h): 1.9 g | LIVER (9 h): 8.8 g | A/G (9 h): 1.8 | ALP (9 h): 908.4 IU/L | ALT (9 h): 28.8 IU/L | AST (9 h): 57.4 IU/L | BUN (9 h): 10.8 mg/dL | CRE (9 h): 0.4 mg/dL | Ca (9 h): 10.7 mg/dL | Cl (9 h): 103.6 meq/L | DBIL (9 h): 0.07 mg/dL | GLC (9 h): 201.4 mg/dL | IP (9 h): 10.3 mg/dL | K (9 h): 4 meq/L | LDH (9 h): 145.6 IU/L | Na (9 h): 141.8 meq/L | PL (9 h): 139 mg/dL | RALB (9 h): 3.5 g/dL | TBIL (9 h): 0.1 mg/dL | TC (9 h): 74.4 mg/dL | TG (9 h): 50.8 mg/dL | TP (9 h): 5.5 g/dL | gamma-GTP (9 h): 1 IU/L | TERMINAL_BW (24 h): 234.7 g | APTT (24 h): 17.8 s | Bas (24 h): 0.4% | Eos (24 h): 0.8% | Fbg (24 h): 222.8 mg/dL | Hb (24 h): 13.4 g/dL | Ht (24 h): 37.5% | Lym (24 h): 81.6% | MCH (24 h): 22.2 pg | MCHC (24 h): 35.6% | MCV (24 h): 62.5 fL | Mono (24 h): 3% | Neu (24 h): 13.6% | PT (24 h): 11.7 s | Plat (24 h): 128.7 x10_4/uL | RBC (24 h): 601 x10_4/ul | Ret (24 h): 6.6% | WBC (24 h): 91.3 x10_2/uL | KIDNEY_L (24 h): 1 g | KIDNEY_R (24 h): 1 g | KIDNEY_TOTAL (24 h): 2 g | LIVER (24 h): 10.8 g | A/G (24 h): 1.6 | ALP (24 h): 1087.6 IU/L | ALT (24 h): 37.8 IU/L | AST (24 h): 75.8 IU/L | BUN (24 h): 15.2 mg/dL | CRE (24 h): 0.4 mg/dL | Ca (24 h): 10.8 mg/dL | Cl (24 h): 103.6 meq/L | DBIL (24 h): 0.062 mg/dL | GLC (24 h): 188.8 mg/dL | IP (24 h): 7.6 mg/dL | K (24 h): 3.9 meq/L | LDH (24 h): 214.6 IU/L | Na (24 h): 141.6 meq/L | PL (24 h): 140.4 mg/dL | RALB (24 h): 3.4 g/dL | TBIL (24 h): 0.1 mg/dL | TC (24 h): 70.8 mg/dL | TG (24 h): 100.2 mg/dL | TP (24 h): 5.6 g/dL | gamma-GTP (24 h): 1.2 IU/L
